Measurements as given in patent publication US6613340B2, “Substantive hydrophobic cationic UV-absorbing compounds” (Galaxy Surfactants Ltd., priority 2001, dated 2003).

Test: UV absorption (molar extinction coefficient)
Type: physicochemical
Settings: in methanol
Description: Ethyl p-methoxy cinnamate (206.0 g, 1.0 mole), N,N-dimethylpropyldiamine (306.0 g, 3.0 mole) and sodium methoxide (2.0 g) were charged in a pressure reactor. The air inside the reactor was flushed out by purging of nitrogen. The reaction mixture was then stirred at 180° C. (this generated pressure of 18 kg/cm^2) for 36 hours. The progress of reaction was monitored by disappearance of ethyl p-methoxy cinnamate on chromatography (TLC and HPLC). The TLC was performed on aluminium coated silica gel plates (Merck-60-F-254) and viewed with a UV lamp at 254 nm. HPLC was performed using reversed phase technique on a C-18 bonded (octadecyl silane) column and 60% aqueous methanol as mobile phase (1.0 ml/min) and detection at 280 nm. The excess amine was removed under vacuum.

Compound: CCCCCCCCCCCC[N+](C)(C)CCCNC(=O)C=Cc1ccc(OC)cc1.Cc1ccc(S(=O)(=O)[O-])cc1 [p-methoxy cinnamidopropyldimethyllauryl ammonium tosylate]
- molar extinction coefficient, ε (at λmax 310 nm): 25,000

Compound: COc1ccc(C=CC(=O)NCCCN(C)C)cc1 [p-methoxy cinnamidopropyldimethylamine]
- molar extinction coefficient, ε (at 290 nm, in M-1cm-1 (unit assumed)): 24,224
